Source: patent publication US9254262B2, “Dosage and formulation” (Almirall, S.A., priority 2008, dated 2016)

Tested on: Patients with moderate to severe stable COPD
Assay: 4-week randomized once-daily inhaled treatment in COPD patients, spirometry (FEV1) and tolerability
Format: in vivo, human
Experimental: Methods: Patients with moderate to severe stable COPD were randomized to receive double-blind, once-daily treatment with aclidinium (25, 50, 100, 200, or 400 μg), placebo, or open-label tiotropium 18 μg for 4 weeks. Spirometric measurements were performed at 22-24 h after the first dose and then at weekly intervals, and from 0.5-6 h post-administration on Day 1 and at Week 4 (Day 29).
Results: The ITT population included 460 patients.
Mean change from baseline in trough FEV1 on Day 29

[1] = 25-400 μg once daily for 4 weeks, COPD patients

**Q.** `C[N+]1(C)[C@@H]2C[C@@H](OC(=O)C(O)(c3cccs3)c3cccs3)C[C@H]1[C@@H]1O[C@@H]12` [Tiotropium, reference compound] was tested. Which “Mean change from baseline in trough FEV1 on Day 29 (Mean Δ)” value (tiotropium 18 μg once daily, open-label, 4 weeks, COPD patients, *p < 0.05 vs placebo) did it give?
**A.** 161* ml

**Q.** What does the source list for `O=C(O[C@H]1C[N+]2(CCCOc3ccccc3)CCC1CC2)C(O)(c1cccs1)c1cccs1.[Br-]` [Aclidinium, 3(R)-(2-hydroxy-2,2-dithien-2-ylacetoxy)-1-(3-phenoxypropyl)-1-azoniabicyclo[2.2.2]octane bromide]?
**A.** Effect on ECG, laboratory parameters or adverse events [1]: no dose-dependent effect; Tolerability [1]: well tolerated; Effect on trough FEV1 on Day 29 (dose dependence) (25-400 μg once daily, ITT population 460 patients): dose-dependently increased; Bronchodilatory effect compared with open-label tiotropium 18 μg (aclidinium 200 and 400 μg): comparable bronchodilatory effects; Bronchodilatory effect during the first 6 h post-dose on Day 29 versus Day 1 (all doses): comparable to that on Day 1; Duration of bronchodilation (once-daily dosing, COPD patients): sustained bronchodilation over 24 h
